Broadly, the IC50 is the concentration needed to halve the response being measured.

Bounds are passed on as bounds.

For the first test, the system named is MV-4-11 cells. As to the kind of experiment: Cell Viability Assay in MV-4-11 Cells. Conditions: Homo sapiens, MV4-11, 72 h. Format: cell-based. The method, then: MV-4-11 cells (ATCC) were seeded into sterile 96-well flat clear bottom white polystyrene TC-treated microplates (Corning) at 7,000 cells/well in 150 μL complete growth medium (Iscove's Modified Dulbecco's Medium (IMDM) (Gibco), 10% Heat Inactivated Fetal Bovine Serum (HyClone), 1% Penicillin-Streptomycin-L-Glutamine (HyClone), 1% GlutaMAX (Gibco)). […] After 72 h incubation, plates were removed from incubators and allowed to equilibrate to room temperature (˜10 min) before adding 50 μL per well Cell-Titer Glo reagent (Promega) using a WellJet (Integra Biosciences) dispenser. Plates were then incubated at room temperature for 2-20 min prior to measurement of luminescence on an Envision (Perkin Elmer) plate reader. Data were normalized to DMSO (100% viability) and analyzed using a non-linear four-parameter curve fit.
`CC(C)NC(=O)c1ccc2c(N(C(=O)c3ccc(-n4nnc5cccnc54)cc3F)[C@@H]3CCCNC3)nccc2c1` [Example 372, (R)-1-(4-(3H-[1,2,3]triazolo[4,5-b]pyridin-3-yl)-2-fluoro-N-(piperidin-3-yl)benzamido)-N-isopropylisoquinoline-6-carboxamide] displayed a half-maximal inhibitory concentration (IC50) of 100 nM. `CC(C)(O)C#Cc1cc2c(N(C(=O)c3ccc(-n4nnc5cccnc54)cc3F)[C@@H]3CCCNC3)nccc2s1` [Example 376, 2-fluoro-N-[2-(3-hydroxy-3-methyl-but-1-ynyl)thieno[3,2-c]pyridin-4-yl]-N-[(3R)-3-piperidyl]-4-(triazolo[4,5-b]pyridin-3-yl)benzamide] registered a concentration for half-maximal inhibition (IC50) of 680 nM.

Still in this test, the particulars now being: Homo sapiens, MV4-11, 72 h, MV-4-11 cells, 72 h, Cell-Titer Glo; read-out: IC50.
Consider `Cn1cc(-c2ccc(C(=O)N(c3nccc4sc(-c5ccncc5)cc34)[C@@H]3CCCNC3)c(F)c2)nn1` [Example 363, 2-fluoro-4-(1-methyltriazol-4-yl)-N-[(3R)-3-piperidyl]-N-[2-(4-pyridyl)thieno[3,2-c]pyridin-4-yl]benzamide], for which the 50% inhibitory concentration (IC50) is 350 nM.

For the molecule `O=C(c1ccc(-n2nnc3cccnc32)cc1F)N(c1nccc2sc(-c3cccnc3)cc12)[C@@H]1CCCNC1` [Example 364, 2-fluoro-N-[(3R)-3-piperidyl]-N-[2-(3-pyridyl)thieno[3,2-c]pyridin-4-yl]-4-(triazolo[4,5-b]pyridin-3-yl)benzamide], the half-maximal inhibitory concentration (IC50) was 360 nM. For the molecule `O=C(c1ccc(-n2nnc3cccnc32)cc1F)N(c1nccc2sc(-c3ccccn3)cc12)[C@@H]1CCCNC1` [Example 365, 2-fluoro-N-[(3R)-3-piperidyl]-N-[2-(2-pyridyl)thieno[3,2-c]pyridin-4-yl]-4-(triazolo[4,5-b]pyridin-3-yl)benzamide], the 50% inhibitory concentration (IC50) turned out to be 480 nM. As to `O=C(c1ccc(-n2nnc3cccnc32)cc1F)N(c1nccc2cc(-c3ncco3)ccc12)[C@@H]1CCCNC1` [Example 366, (R)-4-(3H-[1,2,3]triazolo[4,5-b]pyridin-3-yl)-2-fluoro-N-(6-(oxazol-2-yl)isoquinolin-1-yl)-N-(piperidin-3-yl)benzamide], the IC50 was 290 nM. For `O=C(c1ccc(-n2nnc3cccnc32)cc1F)N(c1nccc2cc(-c3cccnc3)ccc12)[C@@H]1CCCNC1` [Example 367, (R)-4-(3H-[1,2,3]triazolo[4,5-b]pyridin-3-yl)-2-fluoro-N-(piperidin-3-yl)-N-(6-(pyridin-3-yl)isoquinolin-1-yl)benzamide], the 50% inhibitory concentration (IC50) turned out to be 250 nM. Consider `O=C(c1ccc(-n2nnc3cccnc32)cc1F)N(c1nccc2cc(-c3cccs3)ccc12)[C@@H]1CCCNC1` [Example 368, (R)-4-(3H-[1,2,3]triazolo[4,5-b]pyridin-3-yl)-2-fluoro-N-(piperidin-3-yl)-N-(6-(thiophen-2-yl)isoquinolin-1-yl)benzamide], for which the IC50 came out at 500 nM. For `CNC(=O)c1ccc2c(N(C(=O)c3ccc(-n4nnc5cccnc54)cc3F)[C@@H]3CCCNC3)nccc2c1` [Example 369, (R)-1-(4-(3H-[1,2,3]triazolo[4,5-b]pyridin-3-yl)-2-fluoro-N-(piperidin-3-yl)benzamido)-N-methylisoquinoline-6-carboxamide], the IC50 was found to be 230 nM. Turning to `Cn1cc(-c2ccc(C(=O)N(c3nccc4cc(-c5cccnc5)ccc34)[C@@H]3CCCNC3)c(F)c2)nn1` [Example 370, (R)-2-fluoro-4-(1-methyl-1H-1,2,3-triazol-4-yl)-N-(piperidin-3-yl)-N-(6-(pyridin-3-yl)isoquinolin-1-yl)benzamide], the half-inhibitory concentration (IC50) was determined as 180 nM. The same measure, in the same setting: the figure for `O=C(NCCO)c1ccc2c(N(C(=O)c3ccc(-n4nnc5cccnc54)cc3F)[C@@H]3CCCNC3)nccc2c1` [Example 371, (R)-1-(4-(3H-[1,2,3]triazolo[4,5-b]pyridin-3-yl)-2-fluoro-N-(piperidin-3-yl)benzamido)-N-(2-hydroxyethyl) isoquinoline-6-carboxamide] is 1300 nM; for `O=C(NCc1ccccc1)c1ccc2c(N(C(=O)c3ccc(-n4nnc5cccnc54)cc3F)[C@@H]3CCCNC3)nccc2c1` [Example 373, (R)-1-(4-(3H-[1,2,3]triazolo[4,5-b]pyridin-3-yl)-2-fluoro-N-(piperidin-3-yl)benzamido)-N-benzylisoquinoline-6-carboxamide] it is 180 nM.

For the molecule `CNC(=O)c1cc(-c2cc3c(N(C(=O)c4ccc(-n5nnc6cccnc65)cc4F)[C@@H]4CCCNC4)nccc3s2)ccn1` [Example 374, 4-[4-[[2-fluoro-4-(triazolo[4,5-b]pyridin-3-yl)benzoyl]-[(3R)-3-piperidyl]amino]thieno[3,2-c]pyridin-2-yl]-N-methyl-pyridine-2-carboxamide], the concentration for half-maximal inhibition (IC50) was 600 nM.

Turning to `COC(=O)c1ccc(-c2cc3c(N(C(=O)c4ccc(-n5nnc6cccnc65)cc4F)[C@@H]4CCCNC4)nccc3s2)cc1` [Example 375, methyl 4-[4-[[2-fluoro-4-(triazolo[4,5-b]pyridin-3-yl)benzoyl]-[(3R)-3-piperidyl]amino]thieno[3,2-c]pyridin-2-yl]benzoate], the IC50 is 600 nM. Still for that read-out and setting: the figure for `O=C(c1ccc(-n2nnc3cccnc32)cc1F)N(c1nccc2sc(-c3ccc(O)cc3)cc12)[C@@H]1CCCNC1` [Example 377, (R)-4-(3H-[1,2,3]triazolo[4,5-b]pyridin-3-yl)-2-fluoro-N-(2-(4-hydroxyphenyl)thieno[3,2-c]pyridin-4-yl)-N-(piperidin-3-yl)benzamide] is 1300 nM; for `COc1ccc(-c2cc3c(N(C(=O)c4ccc(-n5nnc6cccnc65)cc4F)[C@@H]4CCCNC4)nccc3s2)cc1` [Example 378, 2-fluoro-N-[2-(4-methoxyphenyl)thieno[3,2-c]pyridin-4-yl]-N-[(3R)-3-piperidyl]-4-(triazolo[4,5-b]pyridin-3-yl)benzamide] it is 190 nM; for `O=C(O)c1ccc(-c2cc3c(N(C(=O)c4ccc(-n5nnc6cccnc65)cc4F)[C@@H]4CCCNC4)nccc3s2)cc1` [Example 379, 4-[4-[[2-fluoro-4-(triazolo[4,5-b]pyridin-3-yl)benzoyl]-[(3R)-3-piperidyl]amino]thieno[3,2-c]pyridin-2-yl]benzoic acid] it is > 10000 nM.

Turning to `CNC(=O)c1ccc(-c2cc3c(N(C(=O)c4ccc(-n5nnc6cccnc65)cc4F)[C@@H]4CCCNC4)nccc3s2)cc1` [Example 380, 2-fluoro-N-[2-[4-(methylcarbamoyl)phenyl]thieno[3,2-c]pyridin-4-yl]-N-[(3R)-3-piperidyl]-4-(triazolo[4,5-b]pyridin-3-yl)benzamide], the half-maximal inhibitory concentration (IC50) stood at 120 nM. The same measure, in the same setting: the figure for `O=C(c1ccc(-n2nnc3cccnc32)cc1F)N(c1nccc2sc(-c3cccc(O)c3)cc12)[C@@H]1CCCNC1` [Example 381, 2-fluoro-N-[2-(3-hydroxyphenyl)thieno[3,2-c]pyridin-4-yl]-N-[(3R)-3-piperidyl]-4-(triazolo[4,5-b]pyridin-3-yl)benzamide] is 200 nM; for `C#Cc1cc2c(N(C(=O)c3ccc(-n4nnc5cccnc54)cc3F)[C@@H]3CCCNC3)nccc2s1` [Example 382, N-(2-ethynylthieno[3,2-c]pyridin-4-yl)-2-fluoro-N-[(3R)-3-piperidyl]-4-(triazolo[4,5-b]pyridin-3-yl)benzamide] it is 640 nM.

In the case of `Nc1cc(-c2cc3c(N(C(=O)c4ccc(-n5nnc6cccnc65)cc4F)[C@@H]4CCCNC4)nccc3s2)ccn1` [Example 383, N-[2-(2-amino-4-pyridyl)thieno[3,2-c]pyridin-4-yl]-2-fluoro-N-[(3R)-3-piperidyl]-4-(triazolo[4,5-b]pyridin-3-yl)benzamide], the concentration for half-maximal inhibition (IC50) was found to be 200 nM.

The values are drawn from patent publication US20240400555A1 (Initial Therapeutics, Inc., priority 2023, published 2024).
